In article PMC2704374, “A Multidrug ABC Transporter with a Taste for Salt” (PLoS ONE, 2009):

Target: T1, LmrCD (Lactococcus cremoris, UniProt A2RI37+A2RI38)
T1 construct: gene lmrC
Test: malachite green ATPase assay
Format: biochemical
Settings: 2 mM Mg-ATP; 0.05% DDM

T1 sequence (A2RI38 entry or part of it): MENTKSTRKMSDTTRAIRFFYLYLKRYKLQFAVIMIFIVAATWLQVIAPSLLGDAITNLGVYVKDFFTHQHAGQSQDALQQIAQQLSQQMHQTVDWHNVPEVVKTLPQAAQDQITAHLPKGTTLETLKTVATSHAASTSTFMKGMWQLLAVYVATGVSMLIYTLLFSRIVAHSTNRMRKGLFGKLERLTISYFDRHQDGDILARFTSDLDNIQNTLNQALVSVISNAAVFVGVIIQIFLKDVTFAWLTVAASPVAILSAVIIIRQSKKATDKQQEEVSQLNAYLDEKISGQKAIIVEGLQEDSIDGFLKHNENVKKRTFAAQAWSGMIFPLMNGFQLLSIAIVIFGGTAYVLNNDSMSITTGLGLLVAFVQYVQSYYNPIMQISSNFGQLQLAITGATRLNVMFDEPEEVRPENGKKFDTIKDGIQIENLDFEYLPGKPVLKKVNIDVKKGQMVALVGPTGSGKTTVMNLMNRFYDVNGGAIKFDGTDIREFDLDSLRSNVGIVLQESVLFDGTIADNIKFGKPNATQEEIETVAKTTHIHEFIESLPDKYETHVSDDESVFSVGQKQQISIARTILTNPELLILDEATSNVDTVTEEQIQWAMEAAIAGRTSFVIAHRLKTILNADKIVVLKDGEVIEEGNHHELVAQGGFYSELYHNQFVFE
T1 sequence (A2RI37 entry or part of it): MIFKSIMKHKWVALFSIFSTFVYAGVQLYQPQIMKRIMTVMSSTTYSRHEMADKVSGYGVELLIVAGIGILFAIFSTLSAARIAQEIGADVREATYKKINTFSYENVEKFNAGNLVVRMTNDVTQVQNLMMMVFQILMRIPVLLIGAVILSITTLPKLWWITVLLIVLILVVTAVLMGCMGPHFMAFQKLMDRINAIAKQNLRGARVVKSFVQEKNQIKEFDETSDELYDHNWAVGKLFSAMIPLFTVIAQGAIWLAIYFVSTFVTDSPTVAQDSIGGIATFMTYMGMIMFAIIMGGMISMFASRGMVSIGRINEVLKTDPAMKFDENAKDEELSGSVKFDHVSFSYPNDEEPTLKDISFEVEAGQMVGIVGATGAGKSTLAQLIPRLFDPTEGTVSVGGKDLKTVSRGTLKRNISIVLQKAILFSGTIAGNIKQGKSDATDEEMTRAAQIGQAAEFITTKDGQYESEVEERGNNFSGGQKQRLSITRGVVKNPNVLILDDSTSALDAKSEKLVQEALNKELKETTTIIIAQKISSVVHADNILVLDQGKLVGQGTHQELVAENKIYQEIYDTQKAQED

SMILES: Nc1ncnc2c1ncn2[C@@H]1O[C@H](COP(=O)(O)OP(=O)(O)OP(=O)(O)O)[C@@H](O)[C@H]1O [ATP]
- malachite green ATPase assay: the ATPase activity of the purified multidrug ABC transporter LmrCD from L. lactis
